The target of data set [1] is T1, NK2 (Homo sapiens, UniProt P21452).
T1 sequence (P21452 1-398): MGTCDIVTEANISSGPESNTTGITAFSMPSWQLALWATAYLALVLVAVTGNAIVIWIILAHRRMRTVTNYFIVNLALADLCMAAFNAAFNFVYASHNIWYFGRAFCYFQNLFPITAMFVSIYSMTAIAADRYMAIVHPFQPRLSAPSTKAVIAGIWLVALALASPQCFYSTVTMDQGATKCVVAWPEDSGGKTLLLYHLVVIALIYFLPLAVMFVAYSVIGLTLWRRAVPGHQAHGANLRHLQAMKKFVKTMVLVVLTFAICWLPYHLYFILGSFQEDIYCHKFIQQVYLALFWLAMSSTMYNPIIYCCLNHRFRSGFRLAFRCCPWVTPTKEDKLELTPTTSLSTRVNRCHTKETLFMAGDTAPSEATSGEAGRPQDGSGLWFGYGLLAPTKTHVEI
The data set is described as follows: Signal transduction (ST), intracellular Ca++ (FLIPR), NK2. The settings on record: antagonist, Ca++ transient peak, read-out: pIC50 NK2 (converted). It is filed as cell-based.

For data set [2], the target named is T2, NK3 (Homo sapiens, UniProt P29371).
T2 sequence (P29371 1-465): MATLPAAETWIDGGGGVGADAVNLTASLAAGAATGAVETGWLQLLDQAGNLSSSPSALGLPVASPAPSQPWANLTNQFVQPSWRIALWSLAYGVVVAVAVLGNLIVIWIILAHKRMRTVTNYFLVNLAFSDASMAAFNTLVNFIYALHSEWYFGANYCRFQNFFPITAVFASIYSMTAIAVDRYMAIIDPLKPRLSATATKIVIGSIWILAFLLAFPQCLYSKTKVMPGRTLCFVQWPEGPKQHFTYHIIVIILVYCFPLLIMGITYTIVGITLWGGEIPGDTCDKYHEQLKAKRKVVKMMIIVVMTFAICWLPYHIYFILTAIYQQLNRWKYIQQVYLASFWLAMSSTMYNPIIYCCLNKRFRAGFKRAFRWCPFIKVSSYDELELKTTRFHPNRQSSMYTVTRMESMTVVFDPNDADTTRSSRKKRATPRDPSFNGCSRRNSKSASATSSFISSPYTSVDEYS
Kind of data set: Signal transduction (ST), intracellular Ca++ (FLIPR), NK3. In kind it is cell-based. The settings on record: antagonist, Ca++ transient peak, read-out: pIC50 NK3 (converted).

Data set [3] has as its target NK1 (Homo sapiens, UniProt P25103). Kind of data set: Signal transduction (ST), intracellular Ca++ (FLIPR), NK1. In kind it is cell-based. The settings on record: antagonist, Ca++ transient peak, read-out: pIC50 NK1 (converted). How it is done:
This test evaluates in vitro functional NK1 antagonistic activity. For the measurements of intracellular Ca^++ concentrations the cells were grown on 96-well (black wall/transparent bottom) plates from Costar for 2 days until they reached confluence. The cells were loaded with 2 μM Fluo3 in DMEM containing 0.1% BSA and 2.5 mM probenecid for 1 h at 37° C. They were washed 3× with a Krebs buffer (140 mM NaCl, 1 mM MgCl2×6H2O, 5 mM KCl, 10 mM glucose, 5 mM HEPES; 1.25 mM CaCl2; pH 7.4) containing 2.5 mM probenecid and 0.1% BSA (Ca^++-buffer). The cells were preincubated with a concentration range of antagonists for 20 min at RT and Ca^++-signals after addition of the agonists were measured in a Fluorescence Image Plate Reader (FLIPR from Molecular Devices, Crawley, England). The peak of the Ca^++-transient was considered as the relevant signal and the mean values of corresponding wells were analysed as described below.
The sigmoidal dose response curves were analysed by computerised curve-fitting, using the GraphPad Program. The EC50-value of a compound is the effective dose showing 50% of maximal effect. For mean curves the response to the agonist with the highest potency was normalised to 100%. For antagonist responses the IC50-value was calculated using non-linear regression. […]

This is an account of results in patent US7612056B2, “Substituted diaza-spiro-[4.5]-decane derivatives and their use as neurokinin antagonists” (Jenssen Pharmaceutica N.V., priority 2005, dated 2009).

SMILES strings stand for the structures.

Chain of NK1 (P25103 whole entry): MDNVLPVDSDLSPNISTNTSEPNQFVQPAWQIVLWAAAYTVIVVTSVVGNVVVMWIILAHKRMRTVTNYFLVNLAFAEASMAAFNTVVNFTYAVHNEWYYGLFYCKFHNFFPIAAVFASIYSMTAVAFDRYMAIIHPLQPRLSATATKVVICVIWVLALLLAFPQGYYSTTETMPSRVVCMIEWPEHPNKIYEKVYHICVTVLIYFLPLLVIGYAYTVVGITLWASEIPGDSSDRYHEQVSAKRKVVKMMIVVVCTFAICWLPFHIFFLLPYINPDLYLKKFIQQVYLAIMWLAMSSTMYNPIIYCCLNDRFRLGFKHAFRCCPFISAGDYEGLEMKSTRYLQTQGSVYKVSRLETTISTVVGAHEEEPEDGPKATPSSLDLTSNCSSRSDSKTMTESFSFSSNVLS

Regarding `O=C1CC2(CCN([C@@H]3CCN(C(=O)c4cc(C(F)(F)F)cc(C(F)(F)F)c4)[C@H](Cc4ccccc4)C3)CC2)CN1Cc1ccccc1F` [Compound 33], the IC50 is 9.55 µM in data set [1], 9.12 µM in data set [2] and 0.191 µM in data set [3].
Regarding `Cc1ccccc1CN1CC2(CCN([C@@H]3CCN(C(=O)c4cc(C(F)(F)F)cc(C(F)(F)F)c4)[C@H](Cc4ccccc4)C3)CC2)CC1=O` [Compound 32], the IC50 is 10.5 µM in data set [1], 8.32 µM in data set [2] and 0.269 µM in data set [3].
Taken in the same sequence, the figures for `O=C(c1cc(C(F)(F)F)cc(C(F)(F)F)c1)N1CC[C@H](N2CCCC3(CCCN3C(=O)c3ccoc3)C2)C[C@H]1Cc1ccccc1` (stereo partly drawn) [Compound 48] were 3.63 µM, more than 10 µM and 0.234 µM.
In the same order, the values of `O=C1CC2(CCN([C@@H]3CCN(C(=O)c4cc(C(F)(F)F)cc(C(F)(F)F)c4)[C@H](Cc4ccccc4)C3)CC2)CN1Cc1ccsc1` [Compound 30] are 0.813 µM, more than 10 µM and 0.302 µM.
Taken in the same sequence, the figures for `O=C1CC2(CCN([C@@H]3CCN(C(=O)c4cc(C(F)(F)F)cc(C(F)(F)F)c4)[C@H](Cc4ccccc4)C3)CC2)CN1Cc1ccoc1` [Compound 27] were 1.91 µM, 8.13 µM and 0.117 µM.
Consider `CS(=O)(=O)N1CC2(CCN([C@H]3CCN(C(=O)c4cc(C(F)(F)F)cc(C(F)(F)F)c4)[C@H](Cc4ccccc4)C3)CC2)c2ccccc21` [Compound 39], for which the IC50 in data set [1] was more than 10 µM; in data set [2], more than 10 µM; in data set [3], 0.135 µM.
Take `O=C(c1ccoc1)N1CCC2(CCN(C3CCN(C(=O)c4cc(C(F)(F)F)cc(C(F)(F)F)c4)C(Cc4ccccc4)C3)CC2)C1` (stereo not drawn) [Compound 7]: the IC50 in data set [1] was 7.59 µM; in data set [2], 3.31 µM; in data set [3], 0.178 µM.
In the case of `O=C(c1cc(C(F)(F)F)cc(C(F)(F)F)c1)N1CC[C@H](N2CCCC3(CCCN3C(=O)C3CC3)C2)C[C@H]1Cc1ccccc1` (stereo partly drawn) [Compound 46], the IC50 was 2.04 µM in data set [1] and 0.204 µM in data set [3].
`O=C1CC2(CCN([C@@H]3CCN(C(=O)c4cc(C(F)(F)F)cc(C(F)(F)F)c4)[C@H](Cc4ccccc4)C3)CC2)CN1CC1CC1` [Compound 24]: the IC50 in data set [1] is 2.04 µM; in data set [2], 5.25 µM; in data set [3], 0.126 µM.
In the case of `O=C1CC2(CCN([C@@H]3CCN(C(=O)c4cc(C(F)(F)F)cc(C(F)(F)F)c4)[C@H](Cc4ccccc4)C3)CC2)CN1Cc1ccccc1` [Compound 31], the IC50 in data set [1] was 2.24 µM; in data set [2] it was 11 µM; in data set [3] it was 0.0724 µM.
Taken in the same sequence, the figures for `O=C1CC2(CCN([C@H]3CCN(C(=O)c4cc(C(F)(F)F)cc(C(F)(F)F)c4)[C@H](Cc4ccccc4)C3)CC2)CN1Cc1ccsc1` [Compound 29] were 5.25 µM, more than 10 µM and 0.102 µM.
With `O=C(C1CC1)N1CCC2(CC1)CCN(C1CCN(C(=O)c3cc(C(F)(F)F)cc(C(F)(F)F)c3)C(Cc3ccccc3)C1)C2` (stereo not drawn) [Compound 6], the melting point turned out to be 160 °C. For the same molecule, in data set [2], the IC50 is more than 10 µM. For the same molecule, the IC50 in data set [3] is 0.0537 µM.
`O=C(c1cc(C(F)(F)F)cc(C(F)(F)F)c1)N1CCC(N2CCC3(CC2)CCN(S(=O)(=O)c2cccs2)C3)CC1Cc1ccccc1` (stereo not drawn) [Compound 9]: the IC50 in data set [1] was 9.55 µM; in data set [2], more than 10 µM; in data set [3], 0.234 µM.
In the same order, the values of `O=C1CC2(CCN([C@H]3CCN(C(=O)c4cc(C(F)(F)F)cc(C(F)(F)F)c4)[C@H](Cc4ccccc4)C3)CC2)CN1Cc1ccoc1` [Compound 26] are 3.98 µM, more than 10 µM and 0.0537 µM.
Taken in the same sequence, the figures for `O=C1CC2(CCN(C3CCN(C(=O)c4cc(C(F)(F)F)cc(C(F)(F)F)c4)C(Cc4ccccc4)C3)CC2)CN1CC1CCCO1` (stereo not drawn) [Compound 25] were 5.5 µM, 6.92 µM and 0.0316 µM.
For `O=C1CC2(CCN([C@H]3CCN(C(=O)c4cc(C(F)(F)F)cc(C(F)(F)F)c4)[C@H](Cc4ccccc4)C3)CC2)CN1` [Compound 21], the melting point turned out to be 152 °C. Also, the IC50 in data set [1] was more than 10 µM. In addition, the IC50 in data set [2] was more than 10 µM. The IC50 in data set [3] is 0.347 µM.
With `O=C(c1ccccc1Cl)N1CCC2(CCN([C@H]3CCN(C(=O)c4cc(C(F)(F)F)cc(C(F)(F)F)c4)[C@H](Cc4ccccc4)C3)CC2)C1` [Compound 13], the IC50 in data set [1] is 5.13 µM; in data set [2], 4.27 µM; in data set [3], 0.0759 µM.
Consider `O=C1CC2(CCN([C@H]3CCN(C(=O)c4cc(C(F)(F)F)cc(C(F)(F)F)c4)[C@H](Cc4ccccc4)C3)CC2)CN1Cc1ccccc1Cl` [Compound 34], for which the IC50 in data set [1] is 4.47 µM; in data set [2], more than 10 µM; in data set [3], 0.0692 µM.
Taken in the same sequence, the figures for `O=C(C1CC1)N1CC2(CCN([C@H]3CCN(C(=O)c4cc(C(F)(F)F)cc(C(F)(F)F)c4)[C@H](Cc4ccccc4)C3)CC2)c2ccccc21` [Compound 37] were more than 10 µM, 6.76 µM and 0.302 µM.
In the same order, the values of `O=C(C1CCOC1)N1CCC2(CCN([C@@H]3CCN(C(=O)c4cc(C(F)(F)F)cc(C(F)(F)F)c4)[C@H](Cc4ccccc4)C3)CC2)C1` (stereo partly drawn) [Compound 11] are more than 10 µM, 6.92 µM and 0.282 µM.
In the same order, the values of `Cc1ccccc1CN1CC2(CCN([C@H]3CCN(C(=O)c4cc(C(F)(F)F)cc(C(F)(F)F)c4)[C@H](Cc4ccccc4)C3)CC2)CC1=O` [Compound 28] are 7.59 µM, 10.2 µM and 0.145 µM.
With `O=C1CC2(CCN([C@H]3CCN(C(=O)c4cc(C(F)(F)F)cc(C(F)(F)F)c4)[C@H](Cc4ccccc4)C3)CC2)CN1CC1CC1` [Compound 23], the results for the IC50 in data set [1], in data set [2] and in data set [3] were 4.37 µM, more than 10 µM and 0.0692 µM, respectively.
Taken in the same sequence, the figures for `O=C1CC2(CCN([C@@H]3CCN(C(=O)c4cc(C(F)(F)F)cc(C(F)(F)F)c4)[C@H](Cc4ccccc4)C3)CC2)CN1Cc1ccccc1Cl` [Compound 35] were 9.12 µM, 9.55 µM and 0.182 µM.
Taken in the same sequence, the figures for `O=C(c1ccoc1)N1CCC2(CCN([C@H]3CCN(C(=O)c4cc(C(F)(F)F)cc(C(F)(F)F)c4)[C@H](Cc4ccccc4)C3)CC2)C1` [Compound 8] were more than 10 µM, 0.977 µM and 0.117 µM.

One may read the melting point as the temperature, or range, at which the solid turns liquid.
